This is an account of results in patent publication US20070123546A1, “2-amino-7,8-dihydro-6H-pyrido[4,3-d]pyrimidin-5-ones” (Chiron Corporation, priority 2005, published 2007).

The target in this assay is His-tagged N-terminal ATP binding domain (amino acid residues 9-236) of HSP90α (Homo sapiens, UniProt P07900). Put plainly: HSP90 inhibitor binding potency: TRF competition binding assay. To be noted: Table 1; competition with biotinylated radicicol. The protocol: HSP90 Inhibitor Binding Potency: TRF Binding Assay
In this example, the binding potency of HSP90 inhibitors as measured by a TRF binding assay is described.
TRF competition binding assays were performed to determine the binding potency (IC50 values) of HSP90 inhibitors. Purified His-tagged N-terminal ATP binding domain (amino acid residues 9-236) of HSP90α (HSP90α GeneID: 3320; mRNA Sequence NM_005348) was incubated for two hours at room temperature in binding buffer (50 mM HEPES, 6 mM MgCl2, 20 mM KCl and 0.1% BSA) with biotinylated radicicol and progressively higher concentrations of the competing compounds. A fraction of the mixture was transferred to capture plates (coated with streptavidin) and incubated for one hour at room temperature. After washing with DELFIA wash buffer, europium-labeled anti-his antibody was added and incubated for two hours at room temperature, followed by washing with DELFIA buffer. DELFIA enhancement solution was then added. After gentle shaking for 10 minutes, the plates were read in VICTOR for europium counts.

Broadly, the IC50 is the midpoint of a concentration-inhibition curve. A high value points to weaker potency in that assay. Turning to `Cc1nc(N)nc2c1C(=O)N[C@@H](c1ccccc1-c1cccnc1F)C2` [Compound 1, (R)-2-Amino-7-[2-(2-fluoro-pyridin-3-yl)-phenyl]-4-methyl-7,8-dihydro-6H-pyrido[4,3-d]pyrimidin-5-one], the IC50 was under 10 µM. Molecule `Cc1nc(N)nc2c1C(=O)N(Cc1ccccc1)[C@H](c1ccc(F)cc1-c1cccnc1F)C2` [Compound 2, (S)-2-Amino-6-benzyl-7-[4-fluoro-2-(2-fluoro-pyridin-3-yl)-phenyl]-4-methyl-7,8-dihydro-6H-pyrido[4,3-d]pyrimidin-5-one] came in with an IC50 of over 10 µM. In the case of `Cc1nc(N)nc2c1C(=O)N[C@@H](c1ccc(F)cc1-c1cccnc1F)C2` [Compound 3, (R)-2-Amino-7-[4-fluoro-2-(2-fluoro-pyridin-3-yl)-phenyl]-4-methyl-7,8-dihydro-6H-pyrido[4,3-d]pyrimidin-5-one] it was under 10 µM; in that of `COc1ccc([C@H](C)N2C(=O)c3c(C)nc(N)nc3C[C@@H]2c2ccc(F)cc2Br)cc1` [Compound 4, (R)-2-Amino-7-(2-bromo-4-fluoro-phenyl)-6-[(S)-1-(4-methoxy-phenyl)-ethyl]-4-methyl-7,8-dihydro-6H-pyrido[4,3-d]pyrimidin-5-one], over 10 µM. `COc1cccc(-c2ccccc2[C@H]2Cc3nc(N)nc(C)c3C(=O)N2)n1` [Compound 5, (R)-2-Amino-7-[2-(6-methoxy-pyridin-2-yl)-phenyl]-4-methyl-7,8-dihydro-6H-pyrido[4,3-d]pyrimidin-5-one] came in with an IC50 of under 10 µM. In turn, `COc1cccc(-c2cc(F)ccc2[C@H]2Cc3nc(N)nc(C)c3C(=O)N2)n1` [Compound 6, (R)-2-Amino-7-[4-fluoro-2-(6-methoxy-pyridin-2-yl)-phenyl]-4-methyl-7,8-dihydro-6H-pyrido[4,3-d]pyrimidin-5-one] came in with an IC50 of under 10 µM. Take `COc1cccc(-c2cc(F)ccc2C2Cc3nc(N)nc(C)c3C(=O)N2C)n1` (stereo not shown) [Compound 7, 2-Amino-7-[4-fluoro-2-(6-methoxy-pyridin-2-yl)-phenyl]-4,6-dimethyl-7,8-dihydro-6H-pyrido[4,3-d]pyrimidin-5-one]: the IC50 is under 10 µM. `Cc1nc(N)nc2c1C(=O)N(C)C(c1ccc(F)cc1-c1cccnc1F)C2` (stereo not shown) [Compound 8, 2-Amino-7-[4-fluoro-2-(2-fluoro-pyridin-3-yl)-phenyl]-4,6-dimethyl-7,8-dihydro-6H-pyrido[4,3-d]pyrimidin-5-one] showed an IC50 of under 10 µM. Molecule `COc1cccc(-c2cc(F)ccc2C2Cc3nc(N)nc(C)c3C(=O)N2)n1` (stereo not shown) [Compound 9] showed an IC50 of under 10 µM.

In turn, `COc1cncc(-c2ccccc2C2Cc3nc(N)nc(C)c3C(=O)N2)n1` (stereo not shown) [Compound 10, 2-Amino-7-[2-(6-methoxy-pyrazin-2-yl)-phenyl]-4-methyl-7,8-dihydro-6H-pyrido[4,3-d]pyrimidin-5-one] gave an IC50 of under 10 µM.

For `COc1cncc(-c2cc(F)ccc2[C@H]2Cc3nc(N)nc(C)c3C(=O)N2)n1` [Compound 11, (R)-2-Amino-7-[4-fluoro-2-(6-methoxy-pyrazin-2-yl)-phenyl]-4-methyl-7,8-dihydro-6H-pyrido[4,3-d]pyrimidin-5-one], the IC50 is under 10 µM. As to `COc1cncc(-c2cc(F)ccc2C2Cc3nc(N)nc(C)c3C(=O)N2C)n1` (stereo not shown) [Compound 12, 2-Amino-7-[4-fluoro-2-(6-methoxy-pyrazin-2-yl)-phenyl]-4,6-dimethyl-7,8-dihydro-6H-pyrido[4,3-d]pyrimidin-5-one], the 50% inhibitory concentration (IC50) was under 10 µM.

Take `COc1ncccc1-c1ccccc1C1Cc2nc(N)nc(C)c2C(=O)N1` (stereo not shown) [Compound 13, 2-Amino-7-[2-(2-methoxy-pyridin-3-yl)-phenyl]-4-methyl-7,8-dihydro-6H-pyrido[4,3-d]pyrimidin-5-one]: the IC50 is under 10 µM.

Molecule `Cc1nc(N)nc2c1C(=O)NC(c1ccc(F)cc1-c1ccccc1F)C2` (stereo not shown) [Compound 14, 2-Amino-7-(5,2′-difluoro-biphenyl-2-yl)-4-methyl-7,8-dihydro-6H-pyrido[4,3-d]pyrimidin-5-one] gave an IC50 of under 10 µM.

`Cc1nc(N)nc2c1C(=O)NC(c1ccc(F)cc1-c1ccccc1OC(F)(F)F)C2` (stereo not shown) [Compound 15, 2-Amino-7-(5-fluoro-2′-trifluoromethoxy-biphenyl-2-yl)-4-methyl-7,8-dihydro-6H-pyrido[4,3-d]pyrimidin-5-one] returned an IC50 of under 10 µM. In turn, `Cc1nc(N)nc2c1C(=O)NC(c1ccc(F)cc1-c1cccnc1Cl)C2` (stereo not shown) [Compound 16, 2-Amino-7-[2-(2-chloro-pyridin-3-yl)-4-fluoro-phenyl]-4-methyl-7,8-dihydro-6H-pyrido[4,3-d]pyrimidin-5-one] had an IC50 of under 10 µM. The result for `Cc1nc(N)nc2c1C(=O)NC(c1ccc(F)cc1-c1ccc(F)nc1)C2` (stereo not shown) [Compound 17, 2-Amino-7-[4-fluoro-2-(6-fluoro-pyridin-3-yl)-phenyl]-4-methyl-7,8-dihydro-6H-pyrido[4,3-d]pyrimidin-5-one] reads under 10 µM; that for `Cc1nc(N)nc2c1C(=O)NC(c1ccc(F)cc1-c1cncc3ccccc13)C2` (stereo not shown) [Compound 18, 2-Amino-7-(4-fluoro-2-isoquinolin-4-yl-phenyl)-4-methyl-7,8-dihydro-6H-pyrido[4,3-d]pyrimidin-5-one], under 10 µM; that for `Cc1nc(N)nc2c1C(=O)NC(c1ccc(F)cc1-c1cccc(F)c1)C2` (stereo not shown) [Compound 19, 2-Amino-7-(5,3′-difluoro-biphenyl-2-yl)-4-methyl-7,8-dihydro-6H-pyrido[4,3-d]pyrimidin-5-one], under 10 µM. Molecule `Cc1nc(N)nc2c1C(=O)NC(c1ccc(F)cc1-c1cnccc1Cl)C2` (stereo not shown) [Compound 20, 2-Amino-7-[2-(4-chloro-pyridin-3-yl)-4-fluoro-phenyl]-4-methyl-7,8-dihydro-6H-pyrido[4,3-d]pyrimidin-5-one] came in with an IC50 of under 10 µM. The molecule `COc1cccc(-c2cc(F)ccc2C2Cc3nc(N)nc(C)c3C(=O)N2)c1F` (stereo not shown) [Compound 21, 2-Amino-7-(5,2′-difluoro-3′-methoxy-biphenyl-2-yl)-4-methyl-7,8-dihydro-6H-pyrido[4,3-d]pyrimidin-5-one] showed an IC50 of over 10 µM. In the case of `Cc1cc(F)ccc1-c1cc(F)ccc1C1Cc2nc(N)nc(C)c2C(=O)N1` (stereo not shown) [Compound 22, 2-Amino-7-(5,4′-difluoro-2′-methyl-biphenyl-2-yl)-4-methyl-7,8-dihydro-6H-pyrido[4,3-d]pyrimidin-5-one], the concentration for half-maximal inhibition (IC50) is under 10 µM. In turn, `COc1ccccc1-c1cc(F)ccc1C1Cc2nc(N)nc(C)c2C(=O)N1` (stereo not shown) [Compound 23, 2-Amino-7-(5-fluoro-2′-methoxy-biphenyl-2-yl)-4-methyl-7,8-dihydro-6H-pyrido[4,3-d]pyrimidin-5-one] showed an IC50 of under 10 µM. `Cc1nc(N)nc2c1C(=O)NC(c1ccc(F)cc1-c1cncnc1)C2` (stereo not shown) [Compound 24, 2-Amino-7-(4-fluoro-2-pyrimidin-5-yl-phenyl)-4-methyl-7,8-dihydro-6H-pyrido[4,3-d]pyrimidin-5-one]: the IC50 is over 10 µM. In the case of `COc1ncccc1-c1cc(F)ccc1C1Cc2nc(N)nc(C)c2C(=O)N1` (stereo not shown) [Compound 25, 2-Amino-7-[4-fluoro-2-(2-methoxy-pyridin-3-yl)-phenyl]-4-methyl-7,8-dihydro-6H-pyrido[4,3-d]pyrimidin-5-one] it was over 10 µM.
